Source: a melting point compilation (Tetko et al.; mined from patent text by program, amines drawn as free bases though some values may be those of a salt)

| SMILES | melting point [°C] |
| --- | --- |
| O=C1C(=Cc2ccccc2)SC(=S)N1N=c1sc2ccccc2s1 | 288 to 289 |
| OC1CCc2c(Cl)cc(Cl)c(I)c21 (centres undefined) | 95 to 100 |
| CC12CCC(O)CC1CCC1C2CCC2(C)C(C(O)CO)CCC12 (centres undefined) | 210 to 212 |
| O=[N+]([O-])c1ccc(C#Cc2ccccc2)c(-c2cc([N+](=O)[O-])ccc2C#Cc2ccccc2)c1 | 216 to 218 |
| Cc1cc(N2CCN(C)CC2)n2nc(OCCO)c(S(=O)(=O)c3ccccc3)c2n1 | 178 |
| NS(=O)(=O)c1ccc(-c2cscc2-c2ccc(F)cc2)cc1 | 194 to 195 |
| CCC(=O)N1C(=O)C(=O)c2cc(F)ccc21 | 150 to 152 |
| N#Cc1ccc(CC23CCCN2C(=O)N(c2cc(Cl)cc(-n4cccc4C=O)c2)C3=O)cc1 (centres undefined) | 110 |
| O=C(Nc1ccc(C#CC2(O)CN3CCC2CC3)cc1)C(F)(F)F (centres undefined) | 222 to 223 |
| O=C(c1ccccc1)c1ncc(=O)n(CC(F)(F)F)n1 | 174 to 175 |
| O=C1OCN(C(=O)OCc2ccccc2)[C@H]1CCBr | 85 |
| COC1=C(OC)C(=O)c2c(N)cccc2C1=O | 116 to 117 |
| O=C1C(=C2C=Cc3ccccc3C2)CCCC1=C1C=Cc2ccccc2C1 | 176 |
| O=c1ccn([C@@H]2C[C@H](O)[C@@H](O)[C@H]2O)cc1 (racemic) | 186 to 188 |
| CCn1c(=O)c2[nH]c(/C=C/c3ccc(OC)c(C)c3)nc2n(CC)c1=O | > 270 |
| C=Cn1cc(C(=O)O)c(=O)c2cc(F)c(N3CCC(N)C3)nc21 (centres undefined) | 253 to 257 |
| O=S(=O)(c1ccccc1)N1CCCC1c1ccccc1 (racemic) | 116 |
| Cc1c(SCCSCCn2c([N+](=O)[O-])cnc2C)ccnc1CNc1cnc2ccccc2c1 | 152 to 154 |
| COc1ccc(N2C(=O)C3=C(CCCC3)C2CC(=O)N2CCCCC2)cc1 (centres undefined) | 101 to 102 |
| OC(c1ccc(OCc2ccccc2)cc1)c1ccc(OCc2ccccc2)cc1 | 113 to 120 |
| CC(C)N1CCN(c2ccc([N+](=O)[O-])cc2)C(=O)C1 | 87 to 90 |
| Cc1cc(C)c(C=NCc2ccc(Cl)nc2)c(C)c1 | 47 to 48 |
| O=S(=O)(Cc1ccc(Br)cc1)c1nc(-c2ccncc2)ns1 | 173 |
| Cc1ccc(S(=O)(=O)Nc2ccc(F)cc2[N+](=O)[O-])cc1 | 118 |
| CCCO/N=C(\C(=O)OC)c1csc(NC(=O)CCl)n1 | 86 to 87 |

| SMILES | melting point [°C] |
| --- | --- |
| N#CCc1cn(Cc2ccc(OCc3ccccc3)cc2)nc1-c1ccc(F)cc1 | 86 to 87 |
| CC(C)(C)C1OC1C(O)c1ccc(C(F)(F)F)cc1 (centres undefined) | 74 to 75 |
| NCCNc1ccc([N+](=O)[O-])cc1Cl | 116 |
| COc1c(O)cc(F)cc1-c1c(Cl)cccc1Cl | 65 to 67 |
| COc1ccc(OC)c2c1Cc1c([nH]cnc1=O)N2 | > 300 |
| N#Cc1cnc2cc3c(cc2c1Nc1ccc(Cl)cc1Cl)OCCN3 | 254 to 255 |
| Cc1cc2cc(C(=O)O)[nH]c2cc1C | 266 |
| CCN(CC)C1=C2N=c3cc(Cl)ccc3=C2Oc2ccccc2N1Cc1ccccc1 | 132 to 134 |
| O=Cc1c(Cl)c(Cl)c(Cl)c(Cl)c1Cl | 201 to 203 |
| CCOc1ccc2[nH]c(=O)n(N3CCOCC3)c2c1 | 155 |
| CCCn1c(=O)c2[nH]c(C34CCC(C)(C(=O)O3)C4(C)C)nc2n(CCC)c1=O (centres undefined) | 200 to 201 |
| CCN(CC)C(=O)[C@@H](C)[C@H]1CC[C@H]2[C@@H]3CCC4=CC(=O)CC[C@]4(C)[C@H]3CC[C@]12C | 198 to 199 |
| CS(=O)(=O)c1ccc(-c2cnn(CC(F)(F)F)c(=O)c2Oc2cccnc2)cc1 | 191 to 193 |
| Cc1ccc(Cl)cc1-c1cc(F)cc2c1O[C@@H](CN)C2 | 148 to 150 |
| C(=C\c1ncno1)/c1ccccc1 | 53 to 55 |
| CCCOc1ccc(C#N)cc1-c1ccc(C#N)c(=O)[nH]1 | 248 to 251 |
| CCOC(=O)c1nc2ccc(Cl)nn2c1C | 170 to 171 |
| c1cnc(-c2noc(C3CC3)n2)cn1 | 95 to 98 |
| N#CC(C#N)=C1Sc2nc3ccc(C#N)cc3nc2S1 | 278 to 281 |
| COC(=O)c1cc(I)cc(C)c1OC | 55 to 57 |
| COc1ccc(CN2C=CC=C3C2=Nc2cc(C(F)(F)F)ccc2S(=O)(=O)N3C)cc1 | 142 to 143 |
| CCCCCCCCCCc1ccc(C(=O)N(O)CCCC(=O)O)cc1 | 98 to 100 |
| CN1CC[C@H]2Cc3[nH][nH]c(=O)c3C[C@@H]2C1 (relative stereo) | 245 to 247 |
| Cc1cccc(OCC2=NCCN2C(=S)N(C)C)c1C | 124 to 127 |
| OC1CSC(Oc2ccc(-c3cccnc3Cl)nc2)C(O)C1O (centres undefined) | 203 |

Results, then the compound that gave them:

| melting point [°C] | SMILES |
| --- | --- |
| 196 to 200 | O=C(/C=C/c1ccc2cc[nH]c2c1)CC(=O)/C=C/c1cc(O)ccc1Br |
| 178 | CS(=O)(=O)Nc1ccc(N2CCN(Cc3ccc(-c4ccccc4)o3)CC2)cc1 |
| 68 to 69.5 | CC(C)(C)C(=O)COc1ccc(Cl)cn1 |
| 165 to 166 | O=C(O)CCCc1ccc(C(NS(=O)(=O)c2ccc(Cl)cc2)C2CCCCC2)cc1 (single isomer, unassigned; (+)) |
| > 265 | COC(=O)c1cccc(Nc2nccc(-c3cn[nH]c3-c3ccc(F)cc3)n2)c1 |
| 129 to 131 | O=C(O)c1cn(-c2ccc(F)cc2)c(-c2ccc(N=Cc3ccc([N+](=O)[O-])o3)cc2)cc1=O |
| 268 | O=C(Nc1ccc2ccc(Cl)nc2n1)c1ccc(Cl)cc1 |
| 163 to 164 | CC[C@H](C)[C@H](NC(=O)OCc1ccccc1)C(=O)N[C@@H](C=O)Cc1c[nH]c2ccccc12 |
| 146 to 150 | Cc1ccc(-c2ccc3c(c2)C=C(C(=O)N[C@H]2CC[C@H](CN(C)C4CCN(C(=O)OC(C)(C)C)CC4)CC2)CCO3)cc1 |
| 205 to 207 | O=c1cc(N2CCCCC2)oc2c1ccc1ccccc12 |
| 125 to 129 | COc1cc(F)ccc1-c1ccnc(NC(=O)[C@H]2CC[C@@H](NC(C)=O)C2)c1 |
| 123 to 124 | C=C(C)c1ccc(CNC(=O)N2CCN(c3ncnc4cc(OC)c(OC)cc34)CC2)cc1 |
| 198 to 205 | COC(=O)CCCc1cc2cc(Cl)ccc2n1S(=O)(=O)c1ccc2c(c1)CCC(=O)N2 |
| 168 to 169 | CN(C)C(=O)c1ccc2c(c1)C(c1ncnc3cc(OCCCN4CCOCC4)ccc13)C(=O)N2 (centres undefined) |
| 138 to 140 | CS(=O)(=O)Nc1cc(O)ccc1Oc1ccccc1 |
| 134 to 135 | Fc1cccc2c(NCCc3nc(-c4ccccc4)cs3)ccnc12 |
| 143 | COC(=O)C1=C(C)NC(C)=C(C(=O)OCC2(C)OCCO2)C1c1cccc([N+](=O)[O-])c1 (centres undefined) |
| 74 to 76 | CC(=O)SC(CC(=O)c1cccc(C)c1)C(=O)O (centres undefined) |
| 114 to 115 | O=C(NO)c1ccc(OC(=O)C2(c3ccc(OC(=O)c4ccccc4)cc3)CCCCC2)cc1 |
| 183 | Cc1csc2c1c(=O)oc(=O)n2Cc1ccccc1 |
| 134 to 135 | O=Cc1ccc(OCCN2Cc3ccccc3C2=O)cc1 |
| 252 | COc1ccc(Cn2c(=O)[nH]c3ccc(C(=O)NCc4ccc5c(c4)OCO5)cc3c2=O)cc1 |
| 170 to 172 | CC(CC(=O)O)C(=O)c1ccc2c(c1)OCC(=O)N2 (centres undefined) |
| 107 to 109 | CC(C)C[C@H](NC(=O)c1ccc2c(c1)Nc1ccccc1S2)C(=O)N[C@H]1CCOC1OC(=O)C(C)(C)C (some centres undefined) |
| 140 to 143 | COC(=O)c1ccc2c(c1)C(=O)C(Cc1cccc(C(=O)O)c1)O2 (centres undefined) |

| melting point [°C] | SMILES |
| --- | --- |
| 112 to 113 | C=CCOc1ccc(C(=O)CC(C#N)c2ccc(OC)cc2OC)cc1 (centres undefined) |
| 207 to 210 | CNC(=O)c1ccccc1Nc1nc(Nc2ccc3c(c2)CCN(CC(C)(C)F)CC3)ncc1Cl |
| 85 to 87 | CCCc1cc2ccc(CC(=O)OC)cc2n1C(C)=O |
| 189 to 190 | CN(CCc1ccccc1)C(=O)Cn1cc(C=CC=CC(=O)O)c2cc(OCc3ccccc3)ccc21 |
| 153 | CNC(=O)c1cccc(F)c1Nc1nc(Nc2ccc3c(c2)C(C)(C)CCC(=O)N3)ncc1Cl |
| 165 to 167 | CC(Nc1ncnc2c1ncn2C1OC(CO)C(O)C1O)c1ccccc1 (centres undefined) |
| 260 to 266 | COc1ccc(-c2ccc3c(=O)[nH]c(=O)[nH]c3n2)cc1COC(=O)C(C)(C)C |
| 68 to 69 | COC(=O)c1ccc(OCCCCCCc2cccc(OCc3ccccc3)c2OCc2ccccc2)c(Cl)c1 |
| 131 to 132 | CCc1nc2c(N)nc3cc(Br)ccc3c2n1CC1CCN(C(=O)OC(C)(C)C)CC1 |
| 76 to 78 | Cc1ccc(S(=O)(=O)NCCNC(C)C)cc1 |
| 153 to 155 | CC(C)c1cccc(C(C)C)c1NC(=O)CN1CCN(CCSc2nc3cccc([N+](=O)[O-])c3o2)CC1 |
| 97 to 99 | CCOc1ccc(CC(CO)NC(=O)c2ccnc(Br)c2)cc1OCC (centres undefined) |
| 122 | CCOC(=O)C1=C(COCCN)NC(C)=C(C(=O)OC)C1c1cccc(C(F)(F)F)c1Cl (centres undefined) |
| 109 to 110 | O=C(OCCc1ccc(OCc2ccc(Cl)cc2)cc1)c1cccnc1 |
| 86 to 87 | C=CCOc1ccc(C(=O)C=Cc2cc(OC)ccc2OC)cc1 |
| 107 to 110 | CCOC(C#N)NC(=O)c1ccccc1 (centres undefined) |
| 235 to 236 | COC(=O)c1ccc2[nH]cc(C(C)=O)c2c1 |
| 119 to 121 | COc1ccc(C(=O)Nc2ccccc2S(C)(=O)=O)cc1OC1CCCC1 |
| 157 to 159 | CCOC(=O)c1cc(=O)c(O)c(-c2ccc(Cl)cc2)o1 |
| 80 to 82 | CC1(C)CCC(Cc2ccc(Cl)cc2)=C(O)C1=O |
| 122 to 124 | Brc1ccccc1Cn1c(-c2ccc3c(c2)OCO3)nc2ccccc21 |
| 91 to 92 | CC(C)Cn1nc(-c2ccc(O)cc2O)c2cccc(C(F)(F)F)c21 |
| 86 to 88 | O=C(NCC(F)(F)F)C1(CCCc2ccccc2)c2ccccc2-c2ccccc21 |
| 266 to 269 | COc1ccc(-c2c3c(cc4ccc5c(c24)OCO5)C(=O)NC3)cc1 |
